Test results taken from US7388014B2, “Quinazoline derivatives and therapeutic use thereof” (Rexahn Pharmaceuticals, Inc., priority 2004, dated 2008).

What was measured:
A549 = assay: Cell growth inhibition assay (SRB), A549; assay type: cell-based, Human; conditions: A549 (lung), 96 hours
Text: (§1) Cancer cells used in this study to determine the effect of quinazoline compounds were obtained from the following sources: Human OVCAR-3 (ovary), MCF-7 (breast, hormone-dependent), Hs 578T (breast), MDA-MB-231 (breast), HeLa (cervix), PC3 (prostate), HepG2 (liver), A549 (lung), Caki-1 (kidney), HT-29 (colon), HCT116 (colon) and PANC-1 (pancreas) from the American Type Culture Collection (ATCC) (Manassas, Va.); U251 (brain) from Riken (Japan); MKN-45 (stomach) from DSMZ (Germany); UMRC2 (kidney) and Lox IMVI (melanoma) from the United States National Cancer Institute (Bethesda, Md.). All cell lines except Hs 578T, MDA-MB-231, HCT116, UMRC2, Caki-1 and PANC-1 were grown in RPMI1640 medium (Invitrogen, Carlsbad, Calif.) supplemented with 10% fetal bovine serum (“FBS”), 1 mM sodium pyruvate, 10 mM HEPES and 100 U/ml penicillin and 100 μg/ml streptomycin (“P/S”). Hs 578T, MDA-MB-231, HCT116, UMRC2, Caki-1 and PANC-1 cells were maintained in Dulbecco's modified Eagle's medium (“DMEM”, Invitrogen) supplemented with 10% FBS, P/S, 10 mM HEPES and 2 mM L-glutamine. All cells were incubated at 37° C. under humidified 5% CO2.
(§2) The growth inhibition of the substituted quinazoline derivative compounds against a variety of human tumor cells was evaluated. The relative importance of particular substituent groups on the compounds was also studied. The substituted quinazoline derivative compounds, prepared as described above, were tested, along with DMSO as a control.
(§3) The growth inhibition assay of various compounds against 15 human tumor cell lines was performed using the Sulforhodamnine B (“SRB”) method (Skehan et al., J. National Cancer Institute, 82: 1107-1112 (1990)). Briefly, exponentially growing tumor cells were seeded into a 96-well plate at a density of 2-3×10^3 cells/well and treated with quinazoline compounds the next day. Triplicate wells were used for each treatment. The cells were. incubated with the various compounds for 96 hours at 37° C. in a humidified 5% CO2 atmosphere. After 96-hour incubation, cells were fixed with 10% trichloroacetic acid (“TCA”), incubated for 1 hour at 4° C., and washed 3 times with tap water. Subsequently cells were stained with 0.4% sulforhodamine B in 1% acetic acid for 30 minutes, washed 4 times with 1% acetic acid, and air-dried again. After 5 minutes agitation in 10 mM Tris solution, the absorbance of each well was measured at 530 nm using Benchmark Plus Microplate reader (Bio-Rad Laboratories, Hercules, Calif.).
(§4) To translate the OD530 values into the number of live cells in each well, the OD530 values were compared to those on standard OD530—versus—cell number curves generated for each cell line. The percent survival was calculated using the formula: % Survival=live cell number [test]/live cell number [control]×100
(§5) The IC50 values were calculated by non-linear regression analysis.

HepG2 = assay: Cell growth inhibition assay (SRB), HepG2; assay type: cell-based, Human; conditions: HepG2 (liver), 96 hours, read-out: Inhibition of cell growth (IC50, μM) HepG 2
Text: as §1, §2, §3, §4, §5

MKN-45 = assay: Cell growth inhibition assay (SRB), MKN-45; assay type: cell-based, Human; conditions: MKN-45 (stomach), 96 hours
Text: as §1, §2, §3, §4, §5

PANC-1 = assay: Cell growth inhibition assay (SRB), PANC-1; assay type: cell-based, Human; conditions: PANC-1 (pancreas), 96 hours
Text: as §1, §2, §3, §4, §5

HT-29 = assay: Cell growth inhibition assay (SRB), HT-29; assay type: cell-based, Human; conditions: HT-29 (colon), 96 hours
Text: as §1, §2, §3, §4, §5

PC3 = assay: Cell growth inhibition assay (SRB), PC3; assay type: cell-based, Human; conditions: PC3 (prostate), 96 hours
Text: as §1, §2, §3, §4, §5

U251 = assay: Cell growth inhibition assay (SRB), U251; assay type: cell-based, Human; conditions: U251 (brain), 96 hours
Text: as §1, §2, §3, §4, §5

HeLa = assay: Cell growth inhibition assay (SRB), HeLa; assay type: cell-based, Human; conditions: HeLa (cervix), 96 hours
Text: as §1, §2, §3, §4, §5

Lox IMVI = assay: Cell growth inhibition assay (SRB), Lox IMVI; assay type: cell-based, Human; conditions: Lox IMVI (melanoma), 96 hours
Text: as §1, §2, §3, §4, §5

OVCAR-3 = assay: Cell growth inhibition assay (SRB), OVCAR-3; assay type: cell-based, Human; conditions: OVCAR-3 (ovary), 96 hours
Text: as §1, §2, §3, §4, §5

MCF-7 = assay: Cell growth inhibition assay (SRB), MCF-7; assay type: cell-based, Human; conditions: MCF-7 (breast, hormone-dependent), 96 hours
Text: as §1, §2, §3, §4, §5

MDA-MB-231 = assay: Cell growth inhibition assay (SRB), MDA-MB-231; assay type: cell-based, Human; conditions: MDA-MB-231 (breast), 96 hours
Text: as §1, §2, §3, §4, §5

Hs 578T = assay: Cell growth inhibition assay (SRB), Hs 578T; assay type: cell-based, Human; conditions: Hs 578T (breast), 96 hours
Text: as §1, §2, §3, §4, §5

UMRC2 = assay: Cell growth inhibition assay (SRB), UMRC2; assay type: cell-based, Human; conditions: UMRC2 (kidney), 96 hours
Text: as §1, §2, §3, §4, §5

Caki-1 = assay: Cell growth inhibition assay (SRB), Caki-1; assay type: cell-based, Human; conditions: Caki-1 (kidney), 96 hours
Text: as §1, §2, §3, §4, §5

[1] = test system: 15 human tumor cell lines; assay: Cell growth inhibition assay (SRB), summary over the panel of cell lines; assay type: cell-based; conditions: four of the tested cell lines
Text: Cancer cells used in this study to determine the effect of quinazoline compounds were obtained from the following sources: Human OVCAR-3 (ovary), MCF-7 (breast, hormone-dependent), Hs 578T (breast), MDA-MB-231 (breast), HeLa (cervix), PC3 (prostate), HepG2 (liver), A549 (lung), Caki-1 (kidney), HT-29 (colon), HCT116 (colon) and PANC-1 (pancreas) from the American Type Culture Collection (ATCC) (Manassas, Va.); U251 (brain) from Riken (Japan); MKN-45 (stomach) from DSMZ (Germany); UMRC2 (kidney) and Lox IMVI (melanoma) from the United States National Cancer Institute (Bethesda, Md.). […]
The growth inhibition of the substituted quinazoline derivative compounds against a variety of human tumor cells was evaluated. […]
The growth inhibition assay of various compounds against 15 human tumor cell lines was performed using the Sulforhodamnine B (“SRB”) method (Skehan et al., J. National Cancer Institute, 82: 1107-1112 (1990)). […] After 5 minutes agitation in 10 mM Tris solution, the absorbance of each well was measured at 530 nm using Benchmark Plus Microplate reader (Bio-Rad Laboratories, Hercules, Calif.). […]
The IC50 values were calculated by non-linear regression analysis. […]

Work on CC(C)Nc1ncnc2cc3[nH]cnc3cc12 [RX-1834] yielded an IC50 (A549) of 0.66 µM, an IC50 (HepG2) of 0.18 µM and an IC50 (MKN-45) of 0.1 µM. It also gave an IC50 (PANC-1) greater than 3 µM, an IC50 (HT-29) of 0.24 µM and an IC50 (PC3) of 1.03 µM. The IC50 (U251) was 0.13 µM, the IC50 (HeLa) was 1.06 µM and the IC50 (Lox IMVI) was 0.67 µM. The IC50 (OVCAR-3) was 0.48 µM, the IC50 (MCF-7) was 0.11 µM and the IC50 (MDA-MB-231) was 0.53 µM. It also gave an IC50 (Hs 578T) of 0.79 µM, an IC50 (UMRC2) of 2.24 µM and an IC50 (Caki-1) of 0.65 µM. The IC50 [1] was less than 200 nM.
